SMILES strings stand for the structures.

The target in the first experiment is T1, hCB1 (Homo sapiens, UniProt P21554).
T1 construct: made in house; host or cells: Sf9 insect cells (baculovirus), P2 membranes
T1 sequence (P21554 whole entry): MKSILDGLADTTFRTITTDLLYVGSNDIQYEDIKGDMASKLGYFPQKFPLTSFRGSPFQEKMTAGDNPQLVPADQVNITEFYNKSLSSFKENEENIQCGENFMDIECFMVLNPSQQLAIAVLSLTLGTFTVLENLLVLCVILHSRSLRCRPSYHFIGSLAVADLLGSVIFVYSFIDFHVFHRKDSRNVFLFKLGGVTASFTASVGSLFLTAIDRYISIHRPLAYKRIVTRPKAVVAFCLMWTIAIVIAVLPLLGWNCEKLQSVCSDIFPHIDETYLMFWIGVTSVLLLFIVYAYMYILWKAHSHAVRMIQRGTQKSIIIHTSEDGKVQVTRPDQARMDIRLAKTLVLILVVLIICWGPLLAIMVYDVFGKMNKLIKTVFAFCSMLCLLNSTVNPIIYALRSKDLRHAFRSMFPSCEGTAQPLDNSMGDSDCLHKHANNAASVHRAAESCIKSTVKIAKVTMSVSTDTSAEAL
Description: Agonist-induced GTP binding (GTPγ35S) assay at CB1, Example 8. Type of experiment: biochemical. The settings on record: IC50 at CB1, determined as described in Example 8; read-out: IC50. An outline of the steps:
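Antagonism read as inhibition of 1 nM CP55,940-stimulated GTPγ35S ([…]) binding, compounds at 10^−10 to 10^−5 M. Baculovirus-infected Sf9 membranes bearing hCB1 plus G-protein subunits, 60 min room-temperature incubation with 5 μM GDP. Filtration and scintillation counting; data as percent over basal.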
As for `CCCOc1ccc(NC(=O)Nc2ccccc2)cc1` [Compound 303, N-phenyl-N′-(4-propoxyphenyl)urea], the IC50 – broadly, the concentration at which inhibition is half-maximal – is below 2 µM.

As to `CCCOc1ccc(NC(=O)Nc2cccc(OC)c2)cc1` [Compound 546, 1-(3-methoxyphenyl)-3-(4-propoxyphenyl)urea], the IC50 is below 2 µM. Turning to `COCc1ccc(NC(=O)Nc2cc(F)cc(F)c2)cc1` [Compound 705, 1-(3,5-difluorophenyl)-3-[4-(methoxymethyl)phenyl]urea], the 50% inhibitory concentration (IC50) is below 2 µM. Turning to `COC(=O)c1ccc(NC(=O)Nc2cccc(F)c2)cc1` [Compound 471, methyl 4-({[(3-fluorophenyl)amino]carbonyl}amino)benzoate], the IC50 was below 2 µM. On the same count and under the same terms, in the case of `CCCc1ccc(NC(=O)Nc2cccc(CC)c2)cc1` [Compound 334, 1-(3-ethylphenyl)-3-(4-propylphenyl)urea] it was below 2 µM; in that of `CCOC(=O)c1ccc(NC(=O)Nc2ccc(OCC(C)O)cc2)cc1` (centres unmarked) [Compound 758, ethyl 4-[({[4-(2-hydroxypropoxy)phenyl]amino}carbonyl)amino] benzoate], below 2 µM.

In the case of `COCc1ccc(NC(=O)Nc2ccc(OC(F)F)cc2)cc1` [Compound 533, 1-[4-(difluoromethoxy)phenyl]-3-[4-(methoxymethyl)phenyl]urea], the half-inhibitory concentration (IC50) is below 2 µM. In the case of `COC(=O)c1ccc(NC(=O)Nc2cccc(OC(F)F)c2)cc1` [Compound 677, methyl 4-[({[3-(difluoromethoxy)phenyl]amino}carbonyl)amino]benzoate], the IC50 is below 2 µM.

In the case of `CC(C)Oc1cccc(NC(=O)Nc2cc(F)cc(F)c2)c1` [Compound 708, 1-(3,5-difluorophenyl)-3-(3-isopropoxyphenyl)urea], the IC50 was below 2 µM. For the compound `CCOc1ccc(NC(=O)Nc2ccc(CC)cc2)cc1` [Compound 388, 1-(4-ethoxyphenyl)-3-(4-ethylphenyl)urea], the IC50 was below 2 µM. The same measure, in the same setting: in the case of `N#Cc1ccc(NC(=O)Nc2ccc3c(c2)CCC3)cc1` [Compound 453, 1-(4-cyanophenyl)-3-(2,3-dihydro-1H-inden-5-yl)urea] it was below 2 µM; in that of `CC(=O)c1cccc(NC(=O)Nc2ccc(C(=O)OC(C)C)cc2)c1` [Compound 513, isopropyl 4-({[(3-acetylphenyl)amino]carbonyl}amino)benzoate], below 2 µM. For `O=C(Nc1ccc([N+](=O)[O-])cc1)Nc1cccc(OC(F)F)c1` [Compound 566, 1-[3-(difluoromethoxy)phenyl]-3-(4-nitrophenyl)urea], the IC50 is below 2 µM.

Take `CCC(=O)c1ccc(NC(=O)Nc2ccc(C)c(F)c2)cc1` [Compound 734, 1-(3-fluoro-4-methylphenyl)-3-(4-propionylphenyl)urea]: the IC50 is below 2 µM. Take `CCOC(=O)c1ccc(NC(=O)Nc2ccc(CCO)cc2)cc1` [Compound 754, ethyl 4-[({[4-(2-hydroxyethyl)phenyl]amino}carbonyl)amino] benzoate]: the IC50 was below 2 µM. With `CCc1ccc(NC(=O)Nc2ccc(OCC#N)cc2)cc1` [Compound 489, N-[4-(cyanomethoxy)phenyl]-N′-(4-ethylphenyl)urea], the IC50 is below 2 µM.

In the case of `COc1cccc(NC(=O)Nc2ccc(C(C)=O)cc2)c1` [Compound 408, 1-(4-acetylphenyl)-3-(3-methoxyphenyl)urea], the IC50 is below 2 µM. Regarding `Cc1ccc(NC(=O)Nc2cccc(OC(C)C)c2)cc1F` [Compound 688, 1-(3-fluoro-4-methylphenyl)-3-(3-isopropoxyphenyl)urea], the IC50 was below 2 µM. Take `CCC(=O)c1ccc(NC(=O)Nc2cccc(C)c2)cc1` [Compound 468, 1-(3-methylphenyl)-3-(4-propionylphenyl)urea]: the 50% inhibitory concentration (IC50) is below 2 µM. For `N#CCOc1ccc(NC(=O)Nc2ccc(F)c(F)c2)cc1` [Compound 732, 1-[4-(cyanomethoxy)phenyl]-3-(3,4-difluorophenyl)urea], the concentration for half-maximal inhibition (IC50) was below 2 µM.

For the compound `CCOC(=O)c1ccc(NC(=O)Nc2cccc(C)c2)cc1` [Compound 473, ethyl 4-({[(3-methylphenyl)amino]carbonyl}amino)benzoate], the IC50 is below 2 µM. In the case of `CCOC(=O)c1cccc(NC(=O)Nc2ccc(C(=O)OC(C)C)cc2)c1` [Compound 725, ethyl 3-[({[4-(isopropoxycarbonyl)phenyl]amino}carbonyl)amino] benzoate], the 50% inhibitory concentration (IC50) is below 2 µM. For the compound `COc1cccc(NC(=O)Nc2cccc(OC(F)F)c2)c1` [Compound 553, 1-[3-(difluoromethoxy)phenyl]-3-(3-methoxyphenyl)urea], the half-maximal inhibitory concentration (IC50) was below 2 µM. Take `CCc1ccccc1NC(=O)Nc1cccc(OC(F)F)c1` [Compound 378, 1-[3-(difluoromethoxy)phenyl]-3-(2-ethylphenyl)urea]: the half-maximal inhibitory concentration (IC50) was below 2 µM. Same read-out and setting: to `CC(=O)c1ccc(NC(=O)Nc2ccc(OCC#N)cc2)cc1` [Compound 508, 1-(4-acetylphenyl)-3-[4-(cyanomethoxy)phenyl]urea] belongs below 2 µM. On to `CCOc1ccc(NC(=O)Nc2ccc(Cl)c(C)c2)cc1` [Compound 623, 1-(4-chloro-3-methylphenyl)-3-(4-ethoxyphenyl)urea], for which the IC50 was below 2 µM. With `CC(C)Oc1cccc(NC(=O)Nc2ccc(C(C)C)cc2)c1` [Compound 574, 1-(3-isopropoxyphenyl)-3-(4-isopropylphenyl)urea], the IC50 was below 2 µM. For `COC(=O)c1ccc(NC(=O)Nc2ccc(O)cc2)cc1` [Compound 747, methyl 4-({[(4-hydroxyphenyl)amino]carbonyl}amino)benzoate], the 50% inhibitory concentration (IC50) was below 2 µM. On the same count and under the same terms, to `COCc1ccc(NC(=O)Nc2ccc(C)c(F)c2)cc1` [Compound 685, 1-(3-fluoro-4-methylphenyl)-3-[4-(methoxymethyl)phenyl]urea] belongs below 2 µM; to `Cc1cccc(NC(=O)Nc2ccc(OC(C)C)cc2)c1` [Compound 365, 1-(4-isopropoxyphenyl)-3-(3-methylphenyl)urea], below 2 µM. Regarding `Cc1cc(NC(=O)Nc2ccc(OCC#N)cc2)ccc1F` [Compound 731, 1-[4-(cyanomethoxy)phenyl]-3-(4-fluoro-3-methylphenyl)urea], the half-inhibitory concentration (IC50) is below 2 µM.

Take `CC(C)Oc1cccc(NC(=O)Nc2ccc([N+](=O)[O-])cc2)c1` [Compound 563, 1-(3-isopropoxyphenyl)-3-(4-nitrophenyl)urea]: the IC50 is below 2 µM. Same read-out and setting: to `O=C(Nc1cccc(OC(F)F)c1)Nc1cccc([N+](=O)[O-])c1` [Compound 565, 1-[3-(difluoromethoxy)phenyl]-3-(3-nitrophenyl)urea] belongs below 2 µM. Regarding `CCOC(=O)c1ccc(NC(=O)Nc2ccc(Cl)cc2)cc1` [Compound 500, ethyl 4-({[(4-chlorophenyl)amino]carbonyl}amino)benzoate], the IC50 was below 2 µM. For `Cc1cc(NC(=O)Nc2cccc(OC(C)C)c2)ccc1F` [Compound 689, 1-(4-fluoro-3-methylphenyl)-3-(3-isopropoxyphenyl)urea], the half-inhibitory concentration (IC50) was below 2 µM. `CC(C)c1ccc(NC(=O)Nc2ccc(OC(F)F)cc2)cc1` [Compound 518, 1-[4-(difluoromethoxy)phenyl]-3-(4-isopropylphenyl)urea]: the IC50 is below 2 µM. `CC(C)Oc1ccc(NC(=O)Nc2cccc(F)c2)cc1` [Compound 367, 1-(3-fluorophenyl)-3-(4-isopropoxyphenyl)urea]: the 50% inhibitory concentration (IC50) was below 2 µM.

Still in this experiment, the particulars now being: Table I; IC50 at CB1, GTP binding with 1 nM CP55,940; read-out: IC50.
Take `O=C(Nc1ccc(OC(F)F)cc1)Nc1ccc(OC(F)F)cc1` [Compound 4, N,N′-bis[4-(difluoromethoxy)phenyl]urea]: the 50% inhibitory concentration (IC50) is below 2 µM. Take `CCCOc1ccc(NC(=O)Nc2ccc(C)cc2)cc1` [Compound 40, N-(4-methylphenyl)-N′-(4-propoxyphenyl)urea]: the concentration for half-maximal inhibition (IC50) was below 2 µM.

The same experiment, now with this note: Table II; IC50 at CB1, GTP binding with 1 nM CP55,940; read-out: IC50.
For the compound `CC(=O)c1cccc(NC(=O)Nc2ccc(OC(C)C)cc2)c1` [Compound 281, N-(3-acetylphenyl)-N′-(4-isopropoxyphenyl)urea], the IC50 is below 2 µM. As to `CCCOc1ccc(NC(=O)Nc2ccc(C#N)cc2)cc1` [Compound 272, N-(4-cyanophenyl)-N′-(4-propoxyphenyl)urea], the concentration for half-maximal inhibition (IC50) is below 2 µM. The same measure, in the same setting: in the case of `O=C(Nc1cccc(Cl)c1)Nc1cccc(OC(F)F)c1` [Compound 255, N-(3-chlorophenyl)-N′-[3-(difluoromethoxy)phenyl]urea] it was below 2 µM; in that of `O=C(Nc1cccc(OC(F)F)c1)Nc1cccc(OC(F)F)c1` [Compound 112, N,N′-bis[3-(difluoromethoxy)phenyl]urea], below 2 µM; in that of `Cc1ccc2cc(NC(=O)Nc3ccc(OC(F)F)cc3)ccc2n1` [Compound 142, N-[4-(difluoromethoxy)phenyl]-N′-(2-methylquinolin-6-yl)urea], below 2 µM. As for `Cc1cccc(NC(=O)Nc2cccc(OC(C)C)c2)c1` [Compound 156, N-(3-isopropoxyphenyl)-N′-(3-methylphenyl)urea], the half-maximal inhibitory concentration (IC50) is below 2 µM.

Turning to `O=C(Nc1ccc(OC(F)F)cc1)Nc1ccc(N2CCCCC2)cc1` [Compound 105, N-[4-(difluoromethoxy)phenyl]-N′-(4-piperidin-1-ylphenyl)urea], the IC50 is below 2 µM.

Consider `Cc1ccc(NC(=O)Nc2cccc(F)c2)cc1` [Compound 173, N-(3-fluorophenyl)-N′-(4-methylphenyl)urea], for which the IC50 is below 2 µM. Take `CC(C)Oc1ccc(NC(=O)Nc2cccc(OC(F)F)c2)cc1` [Compound 144, N-[3-(difluoromethoxy)phenyl]-N′-(4-isopropoxyphenyl)urea]: the IC50 was below 2 µM. Still for that read-out and setting: to `O=C(Nc1ccc(OC(F)F)cc1)Nc1ccc2c(c1)CCC2` [Compound 80, N-[4-(difluoromethoxy)phenyl]-N′-(2,3-dihydro-1H-inden-5-yl)urea] belongs below 2 µM. Still for that read-out and setting: in the case of `CCCc1ccc(NC(=O)Nc2ccc(F)cc2)cc1` [Compound 178, N-(4-fluorophenyl)-N′-(4-propylphenyl)urea] it was below 2 µM.
